≈ marks a conversion by molar mass, not a printed value. Like-named read-outs stand apart in the source and are kept apart here. Ends that are not written are not given here.
What was measured:
[1] = system: E. faecium CTC 492; test: MIC assay of antibiotics with ATX-101; assay type: cell-based, Enterococcus faecium; settings: Enterococcus faecium, CTC492, E. faecium CTC 492, read-out: Est MIC
Protocol: The minimum inhibitory concentration (MIC) of ATX-101 (SEQ ID NO: 1289) was determined for various gram negative and gram positive bacteria. The bacteria, Pseudomonas aeruginosa ATCC 15692, Acinetobacter baumenni ATCC 19600, Escherichia coli ATCC 25922, Pseudomonas aeruginosa TO-5A (clinical isolate), Enterococous faecium CCUG 37832, Enterococcus faecium CTC 492, Micrococcus luteus ATCC 9341 and Escherichie coli NCIMB 12210 were grown in the presence of various concentrations of ATX-101 and/or antibiotic.
(§1) ATX-101 was dissolved in Mueller-Hinton broth to 1.25 times of the desired assay concentration. Antibiotics were dissolved in Mueller-Hinton broth and Mueller-Hinton broth with ATX-101 at a concentration of 1.25 times the highest desired assay concentrations. Antibiotics were pharmaceutical grade purchased from Sigma-Aldrich.
(§2) Two-fold serial dilutions of antibiotics were made in Mueller-Hinton with different concentrations of ATX-101, and the solutions were placed in four parallel wells is Nunc 384-well micro plates (30 μl per well in Nunc 242757 microplates). A group of 8 wells with no addition of antibiotics for each ATX-101 concentration was included on each micro plate as a growth reference.
(§3) At the day of analysis, overnight TSB cultures inoculated from freeze stocks (6 ml in 50 ml tube tilted to 45-degrees angle, 200 rpm, 2.5 cm amplitude, 37° C.) were diluted in TSB until the OD800 was 0.10, and further diluted 1:40 in Mueller-Hinton broth. Each well in the 384-well assay plates was inoculated with 7.5 μl of the diluted culture, giving the same dilution of the culture in the assay cultures. The microplates were placed in plastic bags and incubated without shaking at 37° C. The optical density at 600 nm in the microwells was measured after approximately 19 hours of incubation, and the relative growth yield was calculated based on the growth in the reference groups. The MIC value was set to the highest concentration giving less than 30% growth in all 4 parallel wells within the sample groups. The microplates were further incubated for 6 hours, and optical density in the cultures was measured once more for confirmation of the estimated MIC-values.
as §1, with “The APIM peptide was” for “ATX-101 was”, “with APIM” for “with ATX-101”
as §2, with “APIM,” for “ATX-101,”, “in” for “is”, “APIM” for “ATX-101”, “as” for “as a”
as §3, with “inoculated” for “inoculated from”, “OD600” for “OD800”, “culture.” for “culture, giving the same dilution of the culture in the assay cultures.”, “yield in each well” for “yield”

[2] = system: A. baumanii ATCC 19606; test: MIC assay of antibiotics with ATX-101; assay type: cell-based; settings: for MIC: Acinetobacter baumannii; for Est MIC: A. baumanii ATCC 19606
Protocol: as §1, with “The APIM peptide was” for “ATX-101 was”, “with APIM” for “with ATX-101”
as §2, with “APIM,” for “ATX-101,”, “in” for “is”, “APIM” for “ATX-101”, “as” for “as a”
as §3, with “inoculated” for “inoculated from”, “OD600” for “OD800”, “culture.” for “culture, giving the same dilution of the culture in the assay cultures.”, “yield in each well” for “yield”

[3] = system: E. faecium TO-12; assay type: cell-based
Protocol: as §1, §2, §3
(§4) The MICS for various APIM peptides were determined for various bacteria, as described above.

[4] = system: Staphylococcus aureus NCTC 6571; assay type: cell-based; settings: NCTC 6571
Protocol: as §1, §2, §3, §4

[5] = system: Staphylococcus aureus MRSA 1040s; test: microbe, parasite or virus in culture; assay type: cell-based; settings: for MIC: 1040s; for MIC of Erythromycin (Relative values): concentration of APIM peptide 15 μg/ml, MRSA 1040s
Protocol: as §1, §2, §3
as §1, with “The APIM peptide was” for “ATX-101 was”, “with APIM” for “with ATX-101”
as §2, with “APIM,” for “ATX-101,”, “in” for “is”, “APIM” for “ATX-101”, “as” for “as a”
as §3, with “inoculated” for “inoculated from”, “OD600” for “OD800”, “culture.” for “culture, giving the same dilution of the culture in the assay cultures.”, “yield in each well” for “yield”
In view of the anti-bacterial effect of ATX-101 on strains of MRSA, the MIC for a variety of APIM variants was determined using Staphylococcus aureus MRSA 1040s. […] A cell penetrating peptide (SEQ ID NO: 337) present in all of the APIM peptides, was used as a negative control.
Next, the effect of APIM peptides on the MIC of antibiotics was determined using Staphylococcus aureus MRSA 1040s.
as §4

[6] = system: E. faecium CCUG 37832 (TO-3); assay type: cell-based, Enterococcus faecium; settings: CCUG 37832
Protocol: as §1, §2, §3
Accordingly, concentrations of 8 μg/ml and 16 μg/ml of ATX-101 were combined with various antibiotics selected from; 2,4-Diamin, S. methizol, S. methoxa, S. dimetho, Surfaceta, Trimeth, Flumeq, Levoflox, Pruliflox, Metronid and Nitrofur.
as §4

With `CO[C@H]1/C=C/O[C@@]2(C)Oc3c(C)c(O)c4c(O)c(c(/C=N/N5CCN(C)CC5)c(O)c4c3C2=O)NC(=O)/C(C)=C\C=C\[C@H](C)[C@H](O)[C@@H](C)[C@@H](O)[C@@H](C)[C@H](OC(C)=O)[C@@H]1C` [Rifampicin] the MIC ([1]; APIM (ATX-101) conc. 6.5 μg/ml) was 32 µg/mL (≈ 38.9 µM), the MIC ([1]; APIM (ATX-101) conc. 13 μg/ml) was 4 µg/mL (≈ 4.86 µM) and the MIC ([1]; APIM (ATX-101) conc. 20 μg/ml) was 8 µg/mL (≈ 9.72 µM). The MIC ([1]; APIM conc. 0 μg/ml) was 16 µg/mL (≈ 19.4 µM), the MIC ([2]; ATCC19606, A. baumanii ATCC 19606, APIM (ATX-101) conc. 2 μg/ml, read-out: Est MIC) was 2 µg/mL (≈ 2.43 µM) and the MIC ([2]; ATCC19606, A. baumanii ATCC 19606, APIM (ATX-101) conc. 4 μg/ml, read-out: Est MIC) was 1 µg/mL (≈ 1.22 µM). For the same compound, the MIC ([2]; ATCC19606, A. baumanii ATCC 19606, APIM (ATX-101) conc. 8 μg/ml, read-out: Est MIC) was 1 µg/mL (≈ 1.22 µM) and the MIC ([2]; ATCC19606, A. baumanii ATCC 19606, APIM conc. 0 μg/ml, read-out: Est MIC) was 2 µg/mL (≈ 2.43 µM).
Work on `NC[C@H]1O[C@H](O[C@H]2[C@H](O)[C@@H](O[C@H]3O[C@H](CO)[C@@H](O)[C@H](N)[C@H]3O)[C@H](N)C[C@@H]2N)[C@H](N)C[C@@H]1O` [Tobramycin] yielded an MIC ([1]; APIM (ATX-101) conc. 6.5 μg/ml) of 64 µg/mL (≈ 137 µM), an MIC ([1]; APIM (ATX-101) conc. 13 μg/ml) of 32 µg/mL (≈ 68.4 µM) and an MIC ([1]; APIM conc. 0 μg/ml) of 64 µg/mL (≈ 137 µM).
For `CN[C@H](CC(C)C)C(=O)N[C@H]1C(=O)N[C@@H](CC(N)=O)C(=O)N[C@H]2C(=O)N[C@H]3C(=O)N[C@H](C(=O)N[C@H](C(=O)O)c4cc(O)cc(O)c4-c4cc3ccc4O)[C@H](O)c3ccc(c(Cl)c3)Oc3cc2cc(c3O[C@@H]2O[C@H](CO)[C@@H](O)[C@H](O)[C@H]2O[C@H]2C[C@](C)(N)[C@H](O)[C@H](C)O2)Oc2ccc(cc2Cl)[C@H]1O` [Vancomycin], the MIC ([2]; ATCC19606, read-out: Est MIC, A. baumanii ATCC 19606, APIM (ATX-101) conc. 2 μg/ml) was 32 µg/mL (≈ 22.1 µM), the MIC ([2]; ATCC19606, read-out: Est MIC, A. baumanii ATCC 19606, APIM (ATX-101) conc. 4 μg/ml) was 16 µg/mL (≈ 11 µM) and the MIC ([2]; ATCC19606, read-out: Est MIC, A. baumanii ATCC 19606, APIM conc. 0 μg/ml) was 32 µg/mL (≈ 22.1 µM).
For Gentamicin, the “Est MIC” value ([2]; APIM (ATX-101) conc. 2 μg/ml) was 16 µg/mL, the “Est MIC” value ([2]; APIM (ATX-101) conc. 4 μg/ml) was 8 µg/mL and the “Est MIC” value ([2]; APIM conc. 0 μg/ml) was 16 µg/mL.
“MDRFLSKWKKKRKIRRRRRRRRRRR [SEQ ID NO: 1301]” showed an MIC [3] of 25.3 µM, an MIC [4] of 37.9 µM and an MIC [5] of 7.5 µM. The MIC [6] was 7.5 µM.
Compound “MDRFSLKWKKKRKIRRRRRRRRRRR [SEQ ID NO: 1304]” has an MIC [3] of 25.3 µM, an MIC [4] of 37.9 µM and an MIC [5] of 7.5 µM. For the same compound, the MIC [6] was 7.5 µM.
With “MDRWLSKWKKKRKIRRRRRRRRRRR [SEQ ID NO: 1302]” the MIC [3] was 16.8 µM, the MIC [4] was 37.9 µM and the “MIC of Erythromycin (Relative values)” value [5] was 200. The MIC [6] was 7.5 µM.
In the case of “MDRWLTKWKKKRKIRRRRRRRRRRR [SEQ ID NO: 1300]”, the MIC [3] is reported as 25.3 µM, the MIC [4] is reported as 37.9 µM and the “MIC of Erythromycin (Relative values)” value [5] is reported as 100. The MIC [6] was 7.5 µM.

Source: patent US10570180B2, “Anti-bacterial agents and their use in therapy” (priority 2015, dated 2020)
